Literature values as cited in US6280768A, “Berberine alkaloids as a treatment for chronic protozoally induced diarrhea” (PRM Pharmaceuticals, Inc., priority 1997, dated 2001).

Key:
Enterocytozoon bieneusi = settings: cited from earlier work
E. bieneusi = settings: cited from earlier work
E. intestinalis = settings: cited from earlier work
microsporidia = settings: some AIDS patients; cited from earlier work
microsporidiosis = settings: cited from earlier work

CCCSc1ccc2nc(NC(=O)OC)[nH]c2c1 [albendazole]
reduction in parasite load (Enterocytozoon bieneusi; after oral treatment): no significant reduction in parasite load
changes in the parasite (Enterocytozoon bieneusi; human, in vivo): degenerative changes in the parasite
patients relapsed within one month (Enterocytozoon bieneusi; human, in vivo): Four of five patients relapsed within one month
relapse of the fifth patient (Enterocytozoon bieneusi; human, in vivo): the fifth patient relapsed within two months
resolution of chronic diarrhea (Enterocytozoon bieneusi; six AIDS patients): effective in resolving the chronic diarrhea of six AIDS patients
E. bieneusi spores in small bowel biopsies (E. bieneusi; following treatment): spores were still present
symptoms and parasite burden (E. bieneusi; some of 29 patients): improved symptoms and reduced the parasite burden in some of their 29 patients
clearing E. intestinalis from the stools (E. intestinalis; five AIDS patients): initially effective in clearing E. intestinalis from the stools
patients with spores of E. intestinalis again detected in stools (E. intestinalis; followed for more than one month): two of four patients
duration of relief (E. intestinalis; human, in vivo): relief was only temporary
relapse during maintenance therapy (E. intestinalis; human, in vivo): Relapse occurred in one patient
relief of diarrhea (microsporidia): temporarily relieve the diarrhea of some AIDS patients
remission of diarrhea (microsporidiosis; 18 AIDS patients): 70%
arrest of parasite development (microsporidiosis; human, in vivo): did not completely arrest development
rate of parasite reproduction (microsporidiosis; interfering with tubulin polymerization): slow the rate of parasite reproduction
parasite load (microsporidiosis; patients who responded): reduction in parasite load in those patients who responded
